Test results taken from patent US20250319054A1, “Synthetic Eicosanoid Analogues for the Treatment and Prevention of Diseases Associated with Increased GDF15 Plasma Concentration” (OMEICOS Therapeutics GmbH, priority 2021, published 2025).

How the values were obtained:
[1] = test system: IL-6; assay: Clinical phase II study: IL-6 plasma concentration; type: in vivo, human
Method: (§1) In a clinical phase II study 119 patients with persistent atrial fibrillation were investigated with regard to the effect of treatment with Compound-02 (structure of general formula (VI)). The patients were divided into a placebo group and three treatment groups with different dosing of Compound-02. The low, medium and high dosing groups received an oral once daily dosing of 4 mg, 12 mg or 24 mg of Compound-02, respectively.
(§2) The study participants received an implantable cardiac monitor (ICM) at least one week prior to start of treatment with Compound-02. The treatment with Compound-02 was maintained for a total period of three months (i.e. Day 1 to Day 99) and started at least 1 week prior to direct current cardioversion (DCC) (see FIG. 1 for details of study protocol).
(§3) Plasma samples were taken from the patients at different study visits. Biomarkers were analyzed at baseline (V3) and at the end of treatment (V8). For 119 study participants complete sets of biomarkers could be obtained.

[2] = test system: PTX-3; assay: Clinical phase II study: PTX-3 plasma concentration; type: in vivo, human; details: baseline to end-of-treatment (3 months); dose-dependent
Method: as §1, §2, §3

[3] = test system: GDF-15; assay: Clinical phase II study: GDF-15 plasma concentration (sandwich ELISA); type: in vivo, human; details: baseline to end-of-treatment (3 months); dose-dependent
Method: as §1, §2, §3
GDF-15 concentrations were measured in EDTA treated plasma samples with a solid phase sandwich ELISA (Human GDF-15 Quantikine ELISA kit, R&D Systems) using an immobilized mouse monoclonal anti-GDF-15 and a horseradish peroxidase-conjugated monoclonal anti-GDF-15 antibody. […] The reaction product is measured spectrophotometrically at 450 nm (Sunrise Absorbance Reader, TECAN).

[4] = test system: patients with persistent atrial fibrillation; assay: Clinical phase II study: safety; type: in vivo, human; details: oral once daily 4, 12 or 24 mg, three months
Method: as §1, §2

[5] = test system: patients suffering from CAD; details: CANTOS study patients with reduced circulating IL-6 levels; cited from earlier work
[6] = test system: IL-6; details: CANTOS study, 4833 CAD patients; cited from earlier work

| Compound | reduction of IL-6 plasma concentration vs. placebo ([1]; baseline to end-of-treatment (3 months), dose-dependent) | reduction of IL-6 levels in response to treatment ([1]; clinical study) | reduction of PTX-3 plasma concentration vs. placebo [2] | reduction of GDF-15 plasma concentration vs. placebo [3] | changes in the ECG or other types of arrhythmias [4] | safety profile [4] | reduction in major adverse cardiac events (MACE) compared to the placebo group [5] | circulating IL-6 levels [6] |
| --- | --- | --- | --- | --- | --- | --- | --- | --- |
| CNC(=O)C(=O)NCCCC/C=C\CCCCCCCOCC(=O)O [Compound-02] | 30% | 25-40% | 55% | 30% | no changes | good safety profile | – | – |
| Canakinumab: anti-IL-1β antibody that modulates the IL-6 pathway | – | – | – | – | – | – | 32% | reduces circulating IL-6 levels |
